Reference: PMC5607274, “An iterative compound screening contest method for identifying target protein inhibitors using the tyrosine-protein kinase Yes” (Scientific Reports, 2017)

target: T1, human recombinant Yes [a.a. 2–543 (end)] (Homo sapiens, UniProt P07947); experiment: ADP-Glo kinase assay, inhibition rates of Yes phosphorylation activity (first and second screening); format: biochemical; details: first screening; mean of n = 4 wells; 10 μmol L−1 compound
T1 construct: human recombinant Yes [a.a; 2–543 (end)]; purchased BPS Bioscience 40488
How it was run: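 Hits from a first pass were rescreened after re-dissolution from fresh powder. The first pass reported the mean inhibition rate of quadruplicate wells per compound. Activity was that of recombinant human Yes [a.a. 2–543] kinase, read out with the ADP-Glo ADP-detection method.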

T1 sequence (P07947 2-543): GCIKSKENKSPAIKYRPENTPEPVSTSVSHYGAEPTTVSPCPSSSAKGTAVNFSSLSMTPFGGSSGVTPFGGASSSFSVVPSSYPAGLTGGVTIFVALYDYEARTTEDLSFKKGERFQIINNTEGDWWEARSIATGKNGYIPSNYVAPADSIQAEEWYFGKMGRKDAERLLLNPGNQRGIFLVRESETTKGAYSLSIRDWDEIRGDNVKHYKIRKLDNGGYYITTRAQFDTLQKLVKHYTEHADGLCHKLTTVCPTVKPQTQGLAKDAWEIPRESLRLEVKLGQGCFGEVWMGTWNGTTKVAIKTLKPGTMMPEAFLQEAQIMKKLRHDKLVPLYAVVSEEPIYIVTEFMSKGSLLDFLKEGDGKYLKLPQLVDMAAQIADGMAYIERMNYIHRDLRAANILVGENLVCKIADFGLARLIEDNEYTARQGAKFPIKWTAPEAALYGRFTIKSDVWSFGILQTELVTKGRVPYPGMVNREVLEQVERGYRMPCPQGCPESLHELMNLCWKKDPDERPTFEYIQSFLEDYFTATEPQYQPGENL

Going from `NS(=O)(=O)c1ccc(S(=O)(=O)N2CCCC2)cc1` [Compound Z45415601] to `CN(C)S(=O)(=O)c1ccc(S(N)(=O)=O)cc1` [Compound Z45415603], the “First screening IR (inhibition rate)” value rises from -6% to 11%.

Compared with `CCN(CC)S(=O)(=O)c1ccc(S(N)(=O)=O)cc1` [Compound Z45415602], `CCN(CC)S(=O)(=O)c1ccc(S(=O)(=O)N(C)C)cc1` [Compound Z45516173] is higher in “First screening IR (inhibition rate)” value: 1% for the first, 3% for the second.

Compared with `CCCN(S(=O)(=O)c1ccc(C)cc1)S(=O)(=O)c1ccc(Cl)cc1` [Compound Z45422005], `CCCN(S(=O)(=O)c1ccc(Cl)cc1)S(=O)(=O)c1ccc(C)cc1C` [Compound Z45422032] is higher in “First screening IR (inhibition rate)” value: 3% for the first, 5% for the second.

Compared with `CCN(C1CCS(=O)(=O)C1)S(=O)(=O)c1ccc(Br)cc1` (centres unmarked) [Compound Z45467079], `CCN(C1CCS(=O)(=O)C1)S(=O)(=O)c1ccc(C)cc1` (centres unmarked) [Compound Z45467092] is higher in “First screening IR (inhibition rate)” value: 4% for the first, 9% for the second.

Compared with `CCN(C1CCS(=O)(=O)C1)S(=O)(=O)c1ccc(Cl)c(Cl)c1` (centres unmarked) [Compound Z45467101], `CC(C)CN(C1CCS(=O)(=O)C1)S(=O)(=O)c1ccc(Cl)c(Cl)c1` (centres unmarked) [Compound Z45480661] is lower in “First screening IR (inhibition rate)” value: 12% for the first, 1% for the second.

Compared with `CCN(C1CCS(=O)(=O)C1)S(=O)(=O)c1ccc(C)c(C)c1` (centres unmarked) [Compound Z45467115], `CCN(C1CCS(=O)(=O)C1)S(=O)(=O)c1ccc(Br)cc1Cl` (centres unmarked) [Compound Z45467139] is lower in “First screening IR (inhibition rate)” value: 10% for the first, 2% for the second.

Going from `CCN(C1CCS(=O)(=O)C1)S(=O)(=O)c1c(C)c(C)c(C)c(C)c1C` (centres unmarked) [Compound Z45467174] to `CCN(C1CCS(=O)(=O)C1)S(=O)(=O)c1c(C)noc1C` (centres unmarked) [Compound Z45467189], the “First screening IR (inhibition rate)” value falls from 8% to -5%.

First: COc1ccc(NC(C)=O)cc1S(=O)(=O)N(C)Cc1cccc(OC)c1OC [Compound Z45476409]
Second: CCN(CC)S(=O)(=O)c1ccc(OC)c(NC(=S)NCc2ccccc2)c1 [Compound Z45779271]
The “First screening IR (inhibition rate)” value of the first is lower: 2% for the first, 13% for the second.

First: CC(C)CN(C1CCS(=O)(=O)C1)S(=O)(=O)c1ccc(Cl)cc1 (centres unmarked) [Compound Z45480638]
Second: CCCN(C1CCS(=O)(=O)C1)S(=O)(=O)c1ccccc1Cl (centres unmarked) [Compound Z45480819]
The “First screening IR (inhibition rate)” value of the first is higher: 1% for the first, -1% for the second.

Compared with `CC(NS(=O)(=O)c1ccc(C(C)(C)C)cc1)c1ccc(-n2ccnc2)cc1` (centres unmarked) [Compound Z45488256], `CC(C)c1ccc(S(=O)(=O)NC(C)c2ccc(-n3ccnc3)cc2)cc1` (centres unmarked) [Compound Z45488257] is lower in “First screening IR (inhibition rate)” value: 12% for the first, -8% for the second.

Going from `O=S(=O)(c1c(Cl)cccc1Cl)N1CCN(Cc2nc3ccccc3s2)CC1` [Compound Z45503858] to `CCC(C)(C)C1C/C(=C\c2c(Cl)cccc2Cl)c2nc3ccccc3c(C(=O)O)c2C1` (centres unmarked) [Compound Z46116634], the “First screening IR (inhibition rate)” value rises from 3% to 45%.

Compared with `CCN(CC)S(=O)(=O)c1ccc(S(=O)(=O)N(C)C(C)C)cc1` [Compound Z45539789], `Cc1ccc(S(=O)(=O)N(C)S(=O)(=O)c2ccc(C#N)cc2)cc1` [Compound Z45549760] is lower in “First screening IR (inhibition rate)” value: 11% for the first, 3% for the second.

Going from `Cc1n[nH]c(C)c1S(=O)(=O)Nc1cccc(/C=C/c2ccccn2)c1` [Compound Z45649828] to `C(=C\c1nc2cc(-c3ccccc3)ccc2o1)/c1cccnc1` [Compound Z46080472], the “First screening IR (inhibition rate)” value falls from 36% to 11%.

Going from `O=S(=O)(Nc1ccc(N2CCOCC2)cc1)c1ccc(Cl)c(C(F)(F)F)c1` [Compound Z45660528] to `O=c1c2ccc(C(F)(F)F)cc2nc2n1CC/C2=C/c1cccnc1` [Compound Z45931417], the “First screening IR (inhibition rate)” value rises from -2% to 0%.

Compared with `CC1CCCC(NC(=S)Nc2cccc(S(=O)(=O)N(C)C)c2)C1C` (centres unmarked) [Compound Z45768220], `CCCCc1ccc(NC(=S)N2CC3(C)CC2CC(C)(C)C3)cc1` (centres unmarked) [Compound Z45795780] is lower in “First screening IR (inhibition rate)” value: 27% for the first, -6% for the second.

Compared with `O=C(O)c1c2c(nc3ccccc13)/C(=C\c1ccccc1)CCC2` [Compound Z46035726], `COc1cccc(/C=C2\CCCc3c2nc2ccccc2c3C(=O)O)c1` [Compound Z46035772] is higher in “First screening IR (inhibition rate)” value: -14% for the first, 11% for the second.

First: CC(=O)Nc1ccc(/C=C2/CCCc3c2nc2ccccc2c3C(=O)O)cc1 [Compound Z46035730]
Second: O=C(O)c1ccc(/C=C2/CCCc3c2nc2ccccc2c3C(=O)O)cc1 [Compound Z46035770]
The “First screening IR (inhibition rate)” value of the first is higher: 5% for the first, 1% for the second.

Going from `COc1ccc(/C=C2/CCCc3c2nc2ccccc2c3C(=O)O)cc1` [Compound Z46035754] to `COc1ccc(/C=C2/CN(C)Cc3c2nc2ccccc2c3C(=O)O)cc1` [Compound Z46114702], the “First screening IR (inhibition rate)” value falls from 9% to -7%.

Compared with `O=C(O)c1c2c(nc3ccccc13)/C(=C\c1ccc(Cl)c(Cl)c1)CCC2` [Compound Z46035759], `O=C(O)c1c2c(nc3ccccc13)/C(=C\c1ccc(O)c(Br)c1)CCC2` [Compound Z46036098] is lower in “First screening IR (inhibition rate)” value: 0% for the first, -2% for the second.

First: CCOc1cc(/C=C2/CCCc3c2nc2ccccc2c3C(=O)O)ccc1OC [Compound Z46035916]
Second: COc1cc(/C=C2/CC(C)Cc3c2nc2ccccc2c3C(=O)O)ccc1O (centres unmarked) [Compound Z46107807]
The “First screening IR (inhibition rate)” value of the first is higher: 51% for the first, -4% for the second.

Compared with `O=C(/C=C/c1cn(-c2ccccc2)nc1-c1cccnc1)c1ccc(Cl)c([N+](=O)[O-])c1` [Compound Z46041361], `CC1C/C(=C/c2ccc(Cl)c([N+](=O)[O-])c2)c2nc3ccccc3c(C(=O)O)c2C1` (centres unmarked) [Compound Z46107857] is lower in “First screening IR (inhibition rate)” value: 19% for the first, 11% for the second.

Going from `Cc1c(Nc2ccc(/C=C3/C(=O)Nc4ccc(Cl)cc43)cc2)c(=O)n(-c2ccccc2)n1C` [Compound Z46051719] to `CC(=O)Nc1ccc(/C=C2/CC(C(C)(C)C)Cc3c2nc2ccccc2c3C(=O)O)cc1` (centres unmarked) [Compound Z46108738], the “First screening IR (inhibition rate)” value rises from 15% to 26%.

Compared with `O=C1Nc2ccccc2/C1=C\c1c(Cl)nc2sccn12` [Compound Z46060818], `CCN1C/C(=C/c2ccc(F)cc2)c2nc3ccccc3c(C(=O)O)c2C1` [Compound Z46146538] is lower in “First screening IR (inhibition rate)” value: 24% for the first, 5% for the second.

First: CC1C/C(=C/c2ccccc2[N+](=O)[O-])c2nc3ccccc3c(C(=O)O)c2C1 (centres unmarked) [Compound Z46107814]
Second: Cc1ccccc1/C=C1/CC(C)Cc2c1nc1ccccc1c2C(=O)O (centres unmarked) [Compound Z46107859]
The “First screening IR (inhibition rate)” value of the first is higher: 10% for the first, -3% for the second.

Compared with `COc1ccc(/C=C2/CC(C)Cc3c2nc2ccccc2c3C(=O)O)c(OC)c1` (centres unmarked) [Compound Z46107821], `COc1ccccc1/C=C1\CC(C)Cc2c1nc1ccccc1c2C(=O)O` (centres unmarked) [Compound Z46107852] is higher in “First screening IR (inhibition rate)” value: -10% for the first, -1% for the second.

Going from `CC1C/C(=C/c2ccc(C#N)cc2)c2nc3ccccc3c(C(=O)O)c2C1` (centres unmarked) [Compound Z46107862] to `CNc1ccc(/C=C2/CC(C)Cc3c2nc2ccccc2c3C(=O)O)cc1[N+](=O)[O-]` (centres unmarked) [Compound Z46108034], the “First screening IR (inhibition rate)” value rises from -2% to 11%.

Going from `COc1cc(/C=C2/CC(C)Cc3c2nc2ccccc2c3C(=O)O)cc(Cl)c1O` (centres unmarked) [Compound Z46108144] to `CCC(C)(C)C1C/C(=C/c2cc(Br)c(O)c(OC)c2)c2nc3ccccc3c(C(=O)O)c2C1` (centres unmarked) [Compound Z46116622], the “First screening IR (inhibition rate)” value rises from 3% to 5%.

Going from `CC(C)(C)C1C/C(=C/c2ccc3c(c2)OCO3)c2nc3ccccc3c(C(=O)O)c2C1` (centres unmarked) [Compound Z46108733] to `CN1C/C(=C/c2ccc3c(c2)OCO3)c2nc3ccccc3c(C(=O)O)c2C1` [Compound Z46114673], the “First screening IR (inhibition rate)” value falls from 8% to -9%.

Going from `COC(=O)c1ccc(COc2ccc(/C=C3/CC(C(C)(C)C)Cc4c3nc3ccccc3c4C(=O)O)cc2OC)cc1` (centres unmarked) [Compound Z46108841] to `CCC(C)(C)C1C/C(=C/c2ccc(C(C)C)cc2)c2nc3ccccc3c(C(=O)O)c2C1` (centres unmarked) [Compound Z46116606], the “First screening IR (inhibition rate)” value falls from 15% to 13%.

First: CN1C/C(=C/c2ccc(F)cc2)c2nc3ccccc3c(C(=O)O)c2C1 [Compound Z46114693]
Second: CCc1ccc(/C=C2/CN(C)Cc3c2nc2ccccc2c3C(=O)O)cc1 [Compound Z46114754]
The “First screening IR (inhibition rate)” value of the first is lower: -2% for the first, 0% for the second.

First: CN1C/C(=C/c2cccc(Br)c2)c2nc3ccccc3c(C(=O)O)c2C1 [Compound Z46114695]
Second: CCC(C)(C)C1C/C(=C/c2ccccc2Br)c2nc3ccccc3c(C(=O)O)c2C1 (centres unmarked) [Compound Z46116650]
The “First screening IR (inhibition rate)” value of the first is lower: -9% for the first, 23% for the second.

In the case of `CCC(C)(C)C1C/C(=C/c2ccc(Sc3nncn3C)c([N+](=O)[O-])c2)c2nc3ccccc3c(C(=O)O)c2C1` (centres unmarked) [Compound Z46116775], the “First screening IR (inhibition rate)” value is reported as 11%.

same assay, conditions: second screening, dissolved from fresh powder; n = 4; 10 μmol L−1 compound

Compared with `Cc1n[nH]c(C)c1S(=O)(=O)Nc1cccc(/C=C/c2ccccn2)c1` [Compound Z45649828], `CCOc1cc(/C=C2/CCCc3c2nc2ccccc2c3C(=O)O)ccc1OC` [Compound Z46035916] is lower in “Second screening IR (inhibition rate)” value: 0% for the first, -8% for the second.
